Where two headings read alike, the source gives them in different places.
Assays:
LOX1MVI = experiment: in vitro melanoma cell growth inhibition (NCI screen)
M14 = experiment: as above
M19-MEL = experiment: as above
UACC-257 = experiment: as above
UACC-62 = experiment: as above
CCRF-CEM [1] = experiment: in vitro leukemia cell growth inhibition (NCI screen)
HL-60(TB) = experiment: as above
K-562 [2] = experiment: as above
MOLT-4 [3] = experiment: as above
RPMI-8226 = experiment: as above
SF-539 = experiment: in vitro CNS cancer cell growth inhibition (NCI screen)
SNB-75 = experiment: as above
XF-498 = experiment: as above
DLD-1 = experiment: in vitro colon cancer cell growth inhibition (NCI screen)
HCT-15 = experiment: as above
SW 620 = experiment: as above
786-0 = experiment: in vitro renal cancer cell growth inhibition (NCI screen)
CAKI-1 = experiment: as above
OVCAR-3 = experiment: in vitro ovarian cancer cell growth inhibition (NCI screen)
HOP-18 = experiment: in vitro non-small cell lung cancer cell growth inhibition (NCI screen)
NCI-H266 = experiment: as above
LXFL 529 = experiment: as above
CCRF-CEM [4] = settings: human, ccrf-cem cells
K-562 [5] = settings: human, k-562 cells
MOLT-4 [6] = settings: human, molt-4 cells
MALME-3M = experiment: in vitro melanoma cell growth inhibition (NCI screen)
SK-MEL-5 = experiment: as above
COLO-205 = experiment: in vitro colon cancer cell growth inhibition (NCI screen)
HCT-116 = experiment: as above
HT 29 = experiment: as above
MDA-MB-435 = experiment: in vitro breast cancer cell growth inhibition (NCI screen)
MDA-N = experiment: as above
T-47D = experiment: as above
OVCAR-8 = experiment: in vitro ovarian cancer cell growth inhibition (NCI screen)
PC-3 = experiment: in vitro prostate cancer cell growth inhibition (NCI screen)
NCI-H23 = experiment: in vitro non-small cell lung cancer cell growth inhibition (NCI screen)
NCI-H522 = experiment: as above
SK-MEL-28 = experiment: in vitro melanoma cell growth inhibition (NCI screen)
SF-268 = experiment: in vitro CNS cancer cell growth inhibition (NCI screen)
KM 20L2 = experiment: in vitro colon cancer cell growth inhibition (NCI screen)
RXF-393 = experiment: in vitro renal cancer cell growth inhibition (NCI screen)
SN12C = experiment: as above
TK-10 = experiment: as above
UO-31 = experiment: as above
HOP-92 = experiment: in vitro non-small cell lung cancer cell growth inhibition (NCI screen)
human tumor cell lines = assay type: cell-based; settings: Homo sapiens; non-small cell lung, CNS, melanoma, colon, leukemia, small cell lung, and renal cancer cell lines; read-out: logGI50 values (range over cell lines) (converted)
SR = experiment: in vitro leukemia cell growth inhibition (NCI screen)
SNB-78 = experiment: in vitro CNS cancer cell growth inhibition (NCI screen)
U 251 = experiment: as above
NCI-H460 = experiment: in vitro non-small cell lung cancer cell growth inhibition (NCI screen)

Compound	cytotoxicity log GI50 (LOX1MVI)	cytotoxicity log GI50 (M14)	cytotoxicity log GI50 (M19-MEL)	cytotoxicity log GI50 (UACC-257)	cytotoxicity log GI50 (UACC-62)	cytotoxicity log GI50 (CCRF-CEM [1])	cytotoxicity log GI50 (HL-60(TB))	cytotoxicity log GI50 (K-562 [2])	cytotoxicity log GI50 (MOLT-4 [3])	cytotoxicity log GI50 (SF-539)	cytotoxicity log GI50 (SNB-75)	cytotoxicity log GI50 (XF-498)	cytotoxicity log GI50 (DLD-1)	cytotoxicity log GI50 (HCT-15)	cytotoxicity log GI50 (SW 620)	cytotoxicity log GI50 (786-0)	cytotoxicity log GI50 (CAKI-1)	cytotoxicity log GI50 (OVCAR-3)	cytotoxicity log GI50 (LXFL 529)	cytotoxicity log GI50 (HCT-116)	also measured
CC(=O)NC1=C(NC(C)(C)C)C(=O)c2ccccc2C1=O [Compound 32]	-4.78 M	-4.77 M	-4.81 M	-4.80 M	-4.86 M	-5.63 M	-5.65 M	-5.14 M	-5.19 M	-4.80 M	-4.86 M	-4.95 M	-4.80 M	-4.76 M	-4.85 M	-5.47 M	-4.79 M	-4.81 M	-4.82 M		cytotoxicity log GI50 (RPMI-8226): -4.93 M; cytotoxicity log GI50 (HOP-18): -4.83 M; cytotoxicity log GI50 (NCI-H266): -4.84 M
CC(=O)NC1=C(NCCCl)C(=O)c2ccccc2C1=O [Compound 43]		-4.89 M		-4.82 M	-4.70 M						-4.61 M				-4.60 M					-4.69 M	cytotoxicity log GI50 (CCRF-CEM [4]): -4.72 M; cytotoxicity log GI50 (K-562 [5]): -4.55 M; cytotoxicity log GI50 (MOLT-4 [6]): -4.60 M; cytotoxicity log GI50 (MALME-3M): -4.86 M; cytotoxicity log GI50 (SK-MEL-5): -4.77 M; cytotoxicity log GI50 (COLO-205): -4.55 M; cytotoxicity log GI50 (HT 29): -4.58 M; cytotoxicity log GI50 (MDA-MB-435): -4.78 M; cytotoxicity log GI50 (MDA-N): -4.67 M; cytotoxicity log GI50 (T-47D): -4.60 M; cytotoxicity log GI50 (OVCAR-8): -4.70 M; cytotoxicity log GI50 (PC-3): -4.65 M; cytotoxicity log GI50 (NCI-H23): -4.58 M; cytotoxicity log GI50 (NCI-H522): -4.69 M
CC(=O)NC1=C(NCC(C)C)C(=O)c2ccccc2C1=O [Compound 31]	-4.81 M	-4.74 M	-4.73 M	-4.73 M	-4.74 M	-5.14 M	-5.56 M	-4.81 M		-4.76 M	-4.77 M	-4.85 M	-4.72 M	-4.75 M	-4.68 M	-4.84 M	-4.78 M	-4.78 M	-4.79 M	-4.69 M	cytotoxicity log GI50 (MALME-3M): -4.72 M; cytotoxicity log GI50 (SK-MEL-28): -4.77 M; cytotoxicity log GI50 (SK-MEL-5): -4.70 M; cytotoxicity log GI50 (SF-268): -4.69 M; cytotoxicity log GI50 (KM 20L2): -4.67 M; cytotoxicity log GI50 (RXF-393): -4.90 M; cytotoxicity log GI50 (SN12C): -4.77 M; cytotoxicity log GI50 (TK-10): -4.68 M; cytotoxicity log GI50 (UO-31): -4.74 M; cytotoxicity log GI50 (HOP-18): -4.89 M; cytotoxicity log GI50 (HOP-92): -4.85 M; cytotoxicity log GI50 (NCI-H266): -4.80 M; cytotoxicity log GI50 (NCI-H23): -4.70 M
Cc1nc2c(n1Cc1ccc(Cl)cc1)C(=O)c1ccccc1C2=O [Compound 20]	-5.69 M		-4.93 M		-5.47 M	-5.33 M	-5.36 M	-5.69 M	-5.50 M	-5.60 M			-5.38 M	-5.97 M		-5.25 M			-5.26 M	-5.59 M	GI50 (human tumor cell lines): 1 to 10 µM; cytotoxicity log GI50 (SR): -5.88 M; cytotoxicity log GI50 (SF-268): -5.29 M; cytotoxicity log GI50 (SNB-78): -5.03 M; cytotoxicity log GI50 (U 251): -5.46 M; cytotoxicity log GI50 (HT 29): -5.39 M; cytotoxicity log GI50 (KM 20L2): -5.09 M; cytotoxicity log GI50 (OVCAR-8): -5.05 M; cytotoxicity log GI50 (NCI-H460): -5.76 M; cytotoxicity log GI50 (NCI-H522): -5.26 M
